From patent US11679107B2 (Eisai R&D Management Co., Ltd., priority 2018, dated 2023)
Read-outs that look alike come from different tables or passages of the source.

Legend:
SF3b complexes = biological target: T1, SF3b complexes (Homo sapiens, UniProt O75533+Q7RTV0); assay: Scintillation proximity assay (SPA) with [3H]-labelled pladienolide probe; assay type: binding; conditions: SF3B1 (WT); geometric mean; read-out: SPA-ATS GMean IC50 (nM) SF3B1 (WT)
T1 construct: endogenous in cells; host or cells: Nuclear extracts; A HeLa S3 extract preparation is described for the in vitro splicing assay
Procedure: Scintillation Proximity Assay (SPA) with [^3-H]-Labelled Pladienolide Probe
(§1) Batch immobilization of anti-SF3B1 antibody (MBL) to anti-mouse PVT SPA scintillation beads (PerkinElmer) was prepared as follows: for every 2.5 mg of nuclear extracts, 5 μg anti-SF3B1 antibody and 1.5 mg of beads were mixed in 150 μl PBS. The antibody-bead mixture was incubated for 30 min at RT and centrifuged at 18,000 g for 5 min. 150 μl PBS was used to resuspend every 1.5 mg antibody-bead mixture. The beads were suspended and added to the prepared nuclear extracts. The slurry was incubated for 2 h at 4° C. with gentle mixing. The beads were then collected by centrifuging at 18,000 g for 5 min, and washed twice with PBS+0.1% Triton X-100. After a final centrifugation step, every 1.5 mg of beads was suspended with 150 μl of PBS. The SF3b complexes were tested for [^3H]-labelled pladienolide probe binding ([^3H]—PB), synthesized as previously described (Kotake et al., 2007). 100 μl binding reactions were prepared with 50 μl bead slurry and by adding varying concentrations of PB or PB—OH, and after 30 min pre-incubation, 2.5 nM [^3H]—PB was added. The mixture was incubated for 30 min, and luminescence signals were read using a MicroBeta2 Plate Counter (PerkinElmer). Prism 6 (Graphpad) was used for non-linear regression curve fitting of the data. • a. • b. HeLa nuclear extract preparation (for in vitro splicing modulation assay below) • c. HeLa S3 cell pellets were resuspended in hypotonic buffer (10 mM HEPES pH 7.9, 1.5 mM MgCl2, 10 mM KCl, 0.2 mM PMSF, and 0.5 mM DTT) and the suspension was brought up to a total of 5 packed cell volume (PCV). After centrifugation, the supernatant was discarded, and the cells were brought up to 3 PCV with hypotonic buffer and incubated on ice for 10 minutes. Cells were lysed using a dounce homogenizer and then centrifuged. The supernatant was discarded, and the pellet was resuspended with ½ packed nuclear volume (PNV) of low salt buffer (20 mM HEPES pH 7.9, 1.5 mM MgCl2, 20 mM KCl, 0.2 mM EDTA, 25% glycerol, 0.2 mM PMSF, 0.5 mM DTT), followed by ½ PNV of high salt buffer (same as low salt buffer except 1.4 M KCl was used). The nuclei were gently mixed for 30 minutes before centrifuging. The supernatant (nuclear extract) was then dialyzed into storage buffer (20 mM HEPES pH 7.9, 100 mM KCl, 0.2 mM EDTA, 20% glycerol, 0.2 mM PMSF, 0.5 mM DTT). Protein concentration was determined using NanoDrop 8000 UV-Vis spectrophotometer (ThermoFisher Scientific). • d. In vitro splicing assay (IVS)

[1] = system: Ad2 variant pre-mRNAs spliced in HeLa S3 nuclear extracts; assay: In vitro splicing assay (IVS), RT-qPCR of spliced product; assay type: biochemical; conditions: for IC50: geometric mean; for Ratio Ad2.1/2.2: ratio of IVS IC50 Ad2.1 to Ad2.2
Procedure: as §1
All Ad2-derived (Pellizzoni et al., 1998) sequences were cloned into pcDNA3.1(+) vector (Promega) using 5′ EcoRI and 3′ XbaI restriction sites. The plasmids were linearized using XbaI and used as DNA templates in the in vitro transcription reactions. The FtzΔi intron-less plasmid (Luo and Reed, 1999) was linearized using EcoRI. All RNAs were in vitro transcribed and then purified using MEGAScript T7 (Invitrogen) and MegaClear (Invitrogen) kits, respectively. For splicing reactions using Ad2 variant pre-mRNAs, […] reactions were prepared using 8 μg nuclear extracts prepared from HeLa S3, 2 ng pre-mRNA, 0.2 ng FTZΔi, and varying concentrations of exemplary payloads or DMSO. After a 15 minute pre-incubation at 30° C., 1 μL splicing activation buffer (0.5 mM ATP, 20 mM creatine phosphate, 1.6 mM MgCl2) was added, and the reactions were incubated for 90 minutes at 30° C. The reactions were then quenched with 13 μL it DMSO, and 25 nL was used for RT-qPCR. RT-qPCR reactions were prepared using TaqMan RNA-to-CT 1-step kit (Life Technologies), RNA from splicing reactions, Ad2 (forward: […]; reverse: […]; probe: […]) and Ftz (forward: […]; reverse: […]; probe: […]) mRNA primer-probe sets. Prism 6 (Graphpad) was used for non-linear regression curve fitting of the formed spliced product and normalized to the control (DMSO) sample.

[2] = system: NCI-H1568 cells (high MCL1); assay: Cell proliferation and viability, CellTiter-Glo, 72 hours; assay type: cell-based; conditions: for GI50: geometric mean
Procedure: Cell lines were maintained in RPMI-1640 (ATCC 30-2001) supplemented with 10% fetal bovine serum (FBS). The Panc lines were supplemented in addition with insulin and FBS up to 15% total.
Compounds for assay were prepared as stocks in 90% dimethyl sulfoxide (DMSO), assessed for purity by LC/MS, and serially diluted in DMSO using a low-volume liquid handler (VIAFLO ASSIST and VIAFLO II electronic 16-channel pipette, 0.5-12.5 μL) in an 11-point half-log serial dilution to create a master dose response (MDR) source used for all tests.
Transfer of compounds from the MDR source plate to cell assay-ready plates were accomplished directly by low-energy acoustic transfer (ATS100, EDC Biosystems). After transfer of compounds to the assay plate, the dose-response range experienced by cells was typically 10 μM-100 pM (5 logs), and final DMSO concentration in the assay was 0.1%, uniformly. Each assay plate was self-anchored containing vehicle/DMSO negative controls, medium-only/positive controls, and cidal control dose-responses of bortezomib and staurosporine. Assay-ready plates were heat-sealed and stored at −20° C. until used, no longer than one month.
A DMSO-matched time zero (T0) plate was read and then all other plates were incubated at 37° C. with 5% CO2 and 95% relative humidity until the end of assay. Cell proliferation and viability assays were performed 72 hours post-treatment depending on cell growth where at least one doubling would have occurred.
Assessment of viability and proliferation was by measurement of cell ATP content using CellTiter-Glo® Luminescent Cell Viability Assay reagent (Promega) according to the manufacturer's instructions (CellTiter-Glo® Luminescent Cell Viability Assay Technical Bulletin Instructions for Use of Product(s) G7570, G7571, G7572, G7573 Literature #TB288, Revised March 2015), using a microtiter plate reader (Envision, PE).
Cell proliferation was evaluated using the time zero (T0) signal as the positive control and the within-plate vehicle wells (DMSO) as the negative control. Data was converted to percent inhibition and falls into the range from −100% to 100% of growth where −100% equals a cidal response and 100% equals uninhibited or maximal growth. Cell growth at or near 0% is considered a static response.

[3] = Ad2.1 pre-mRNA substrate, read-out: qPCR-IVS-ATS GMean IC50 (nM) Ad2.1
[4] = Ad2.2 pre-mRNA substrate, read-out: qPCR-IVS-ATS GMean IC50 (nM) Ad2.2
[5] = NCI-H1568, read-out: CTGlo-ATS GMean GI50 (nM) 72 h NCIH1568.1, NCIH1568.1 cells, 72 h
[6] = NCIH1568.1 cells, 72 h, −100% cidal, 0% static, 100% maximal growth
[7] = 72 h, NCIH1568.1, -100% = cidal, 0% = static, 100% = uninhibited growth
[8] = NCI-H1568, 72 h, read-out: CTGlo-ATS GMean GI50 (nM) 72 h NCIH1568.1, 72 h, NCIH1568.1

Row | SMILES | IC50 (SF3b complexes) [nM] | IC50 [1, 3] [nM] | IC50 [1, 4] [nM] | GI50 [2, 5] [nM] | CTGlo-ATS Mean MinResponse % 72 h NCIH1568.1 [2, 6] [%] | GI50 ([2]; NCI-H1568, 72 h, read-out: CTGlo-ATS GMean GI50 (nM) 72 h NCIH1568.1, NCIH1568.1 cells, 72 h) [nM] | Ratio Ad2.1/2.2 [1] | CTGlo-ATS Mean MinResponse % 72 h NCIH1568.1 [2, 7] [%] | GI50 [2, 8] [nM]
1 | C/C(=C\c1cc(F)c2nnn(C3CCN(S(C)(=O)=O)CC3)c2c1)[C@H]1OC(=O)C[C@H](O)CC[C@H](C)[C@@H](OC(=O)N2CCN(C)CC2)/C=C/[C@@H]1C [Compound 157] | 2.27 | 8.47 | 7.49 | 1.29 | −90.424 | – | – | – | –
2 | C/C(=C\c1cc(F)cc(N(C)C2CCN(C(=O)c3ccccc3)CC2)c1)[C@H]1OC(=O)C[C@H](O)CC[C@H](C)[C@@H](OC(=O)N2CCN(C)CC2)/C=C/[C@@H]1C [Compound 180] | 42.3 | 29.9 | 24.6 | 14.4 | −86.471 | – | – | – | –
3 | C/C(=C\c1cc(F)c2nnn(C3CCN(C(=O)OC(C)(C)C)CC3)c2c1)[C@H]1OC(=O)C[C@H](O)CC[C@H](C)[C@@H](OC(=O)N2CCN(C)CC2)/C=C/[C@@H]1C [Compound 144] | 12.9 | 23 | 17.8 | 4.12 | −95.432 | – | – | – | –
4 | C/C(=C\c1cc(F)cc(N2CCN(C(=O)[C@H]3CCOC3)CC2)c1)[C@H]1OC(=O)C[C@H](O)CC[C@H](C)[C@@H](OC(=O)N2CCN(C)CC2)/C=C/[C@@H]1C [Compound 151] | 3.41 | 17.9 | 11.4 | – | −83.213 | 2.24 | – | – | –
5 | C/C(=C\c1cc(F)cc(N2CCN(C(=O)Cn3cccn3)CC2)c1)[C@H]1OC(=O)C[C@H](O)CC[C@H](C)[C@@H](OC(=O)NCc2ccncc2)/C=C/[C@@H]1C [Compound 221, [(2S,3S,4E,6R,7S,10R)-2-[(E)-1-[3-fluoro-5-[4-(2-pyrazol-1-ylacetyl)piperazin-1-yl]phenyl]prop-1-en-2-yl]-10-hydroxy-3,7-dimethyl-12-oxo-1-oxacyclododec-4-en-6-yl] N-(pyridin-4-ylmethyl)carbamate] | 9.33 | 9.6 | 4.86 | – | – | – | 1.973 | −66.213 | 11.4
6 | C/C(=C\c1cc(F)cc(N2CCN(C(=O)Cn3cccn3)CC2)c1)[C@H]1OC(=O)C[C@H](O)CC[C@H](C)[C@@H](OC(=O)N2CCN(C3CCCCC3)CC2)/C=C/[C@@H]1C [Compound 238, [(2S,3S,4E,6R,7S,10R)-2-[(E)-1-[3-fluoro-5-[4-(2-pyrazol-1-ylacetyl)piperazin-1-yl]phenyl]prop-1-en-2-yl]-10-hydroxy-3,7-dimethyl-12-oxo-1-oxacyclododec-4-en-6-yl] 4-cyclohexylpiperazine-1-carboxylate] | 18.1 | 32.2 | 68.1 | – | – | – | 0.473 | −88.447 | 5.79
7 | C/C(=C\c1cc(F)c2nnn([C@@H]3CCCOC3)c2c1)[C@H]1OC(=O)C[C@H](O)CC[C@H](C)[C@@H](OC(=O)N2CCN(C)CC2)/C=C/[C@@H]1C [Compound 161] | 2.51 | 8.5 | 6.31 | 0.772 | −85.783 | – | – | – | –
8 | C/C(=C\c1cc(F)cc(N2CCN(C(=O)Cn3cccn3)CC2)c1)C1OC(=O)CC(O)CC[C@H](C)[C@@H](OC(=O)NC(C)CO)/C=C/C1C (stereo in doubt) [Compound 229, [(2R,3R,4E,6R,7S,10S)-2-[(E)-1-[3-fluoro-5-[4-(2-pyrazol-1-ylacetyl)piperazin-1-yl]phenyl]prop-1-en-2-yl]-10-hydroxy-3,7-dimethyl-12-oxo-1-oxacyclododec-4-en-6-yl] N-[(2S)-1-hydroxypropan-2-yl]carbamate] | 17.1 | 329 | 12.2 | – | – | – | 27.000 | −65.653 | 13.4
9 | C/C(=C\c1cc(F)cc(N2CCN(CC(=O)O)CC2)c1)[C@H]1OC(=O)C[C@H](O)CC[C@H](C)[C@@H](OC(=O)N2CCNCC2)/C=C/[C@@H]1C [Compound 264] | 35.7 | 33.4 | 72.4 | – | – | – | 0.461 | −21.716 | 143
10 | C/C(=C\c1cc(F)cc(N2CCN(C(=O)Cn3cccn3)CC2)c1)[C@H]1OC(=O)C[C@H](O)CC[C@H](C)[C@@H](OC(=O)N2CC[C@H](N(C)C)C2)/C=C/[C@@H]1C [Compound 228, [(2S,3S,4E,6R,7S,10R)-2-[(E)-1-[3-fluoro-5-[4-(2-pyrazol-1-ylacetyl)piperazin-1-yl]phenyl]prop-1-en-2-yl]-10-hydroxy-3,7-dimethyl-12-oxo-1-oxacyclododec-4-en-6-yl] (3S)-3-(dimethylamino)pyrrolidine-1-carboxylate] | 3.96 | – | – | – | – | – | – | −77.633 | 3.29
